Measurements as given in article PMC5011342, “A high throughput drug screening assay to identify compounds that promote oligodendrocyte differentiation using acutely dissociated and purified oligodendrocyte precursor cells” (BMC Research Notes, 2016).
Read-outs that look alike come from different tables or passages of the source.

Key:
[1] = tested on: expanded OPCs; assay: cells; settings: for viability at 0.1 µM / viability at 1 µM / viability at 10 µM: Rattus norvegicus, 72 h
In short: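 Expanded OPCs seeded at 10,000 cells/well in differentiation media, then exposed to NCC library compounds at 10, 1 and 0.1 µM (quadruplicate, 0.1% DMSO) for three days. Viability read as alamarBlue fluorescence (560/590 nm) after 4 h at 37 °C; tunicamycin 5 ng/ml served as toxicity control.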

[2] = tested on: acutely dissociated and purified rat OPCs; assay: Acute OL differentiation assay (MBP expression/cell, immunofluorescent image quantification); assay type: cell-based; settings: for activation at 2 µM / activation at 10 µM / activation at 0.4 µM / activation at 0.08 µM: Rattus norvegicus
In short: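 Oligodendrocyte precursor cells were enriched from P6-P7 Sprague–Dawley rat brains by immunopanning (RAN-2 and GalC depletion, O4 selection), plated at 5000 cells/well in serum-free, mitogen-free differentiation media on PDL/laminin 96-well view plates, centrifuged at 200×g, and pre-incubated 1–2 h before test compounds were added in quadruplicate. On DIV4, cells were fixed, stained for MBP and DAPI, imaged automatically, and MBP expression per cell was quantified.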

[3] = read-out: 0.1 µM (% DMSO), alamarBlue viability of expanded OPCs, compound at 0.1 µM, sheet All Tox data
[4] = read-out: 1 µM (% DMSO), alamarBlue viability of expanded OPCs, compound at 1 µM, sheet All Tox data
[5] = read-out: 10 µM (% DMSO), alamarBlue viability of expanded OPCs, compound at 10 µM, sheet All Tox data
[6] = 2 uM test compound, relative to quetiapine, sheet "All OLga data", read-out: OL differentiation, 2 uM (% Quet)
[7] = 10 uM test compound, relative to quetiapine, sheet "All OLga data", read-out: OL differentiation, 10 uM (% Quet)
[8] = alamarBlue viability of expanded OPCs, compound at 0.1 µM, relative to DMSO control
[9] = alamarBlue viability of expanded OPCs, compound at 1 µM, relative to DMSO control
[10] = alamarBlue viability of expanded OPCs, compound at 10 µM, relative to DMSO control
[11] = test compound at 2 uM, MBP expression relative to quetiapine, NCC library screen, sheet "All OLga data", read-out: 2 uM (% Quet)
[12] = test compound at 10 uM, MBP expression relative to quetiapine, NCC library screen, sheet "All OLga data", read-out: 10 uM (% Quet)
[13] = read-out: 0.1 µM (% DMSO), alamarBlue viability, NCC library compound at 0.1 µM, sheet "All Tox data"
[14] = read-out: 1 µM (% DMSO), alamarBlue viability, NCC library compound at 1 µM, sheet "All Tox data"
[15] = read-out: 10 µM (% DMSO), alamarBlue viability, NCC library compound at 10 µM, sheet "All Tox data"
[16] = test compound at 0.4 uM, NCC library screen, sheet "All OLga data", relative to quetiapine, read-out: 0.4 uM (% Quet)
[17] = test compound at 2 uM, NCC library screen, sheet "All OLga data", relative to quetiapine, read-out: 2 uM (% Quet)
[18] = test compound at 10 uM, NCC library screen, sheet "All OLga data", relative to quetiapine, read-out: 10 uM (% Quet)
[19] = 0.4 uM test compound, relative to quetiapine, sheet "All OLga data", read-out: OL differentiation, 0.4 uM (% Quet)

Structure (SMILES)	viability at 0.1 µM [1, 3]	viability at 1 µM [1, 4]	viability at 10 µM [1, 5]	activation at 2 µM [2, 6]	activation at 10 µM [2, 7]	0.1 µM (% DMSO) [1, 8]	1 µM (% DMSO) [1, 9]	10 µM (% DMSO) [1, 10]	other results
CNC(=O)Oc1ccc2c(c1)[C@]1(C)CCN(C)[C@@H]1N2C [Physostigmine]	105%	96.7%	78%	-4.5%	0.12%	–	–	–	–
O=c1c(O[C@@H]2O[C@H](CO)[C@@H](O)[C@H](O)[C@H]2O)c(-c2ccc(O)c(O)c2)oc2cc(O)cc(O)c12 [Isoquercitrin]	85.5%	92.9%	101%	12.9%	8.7%	–	–	–	–
O=C(O)/C=C/c1ccc(Cn2ccnc2)cc1 [Ozagrel]	82.8%	85.9%	92.2%	-6.1%	-20.6%	–	–	–	–
Cc1cnc(NC(=O)C2=C(O)c3ccccc3S(=O)(=O)N2C)s1 [Meloxicam]	–	–	–	–	–	93.1 % DMSO	94.6 % DMSO	86.1 % DMSO	activation at 2 µM [2, 11]: -8.5%; activation at 10 µM [2, 12]: 1.4%
CC(C)c1nc(CN(C)C(=O)N[C@H](C(=O)N[C@@H](Cc2ccccc2)C[C@H](O)[C@H](Cc2ccccc2)NC(=O)OCc2cncs2)C(C)C)cs1 [Ritonavir]	96.5%	97.4%	69.8%	-21.7%	-35.8%	–	–	–	–
Cc1[nH]c(=O)c(C#N)cc1-c1ccncc1 [Milrinone]	–	–	–	5.1%	-2.1%	–	–	–	viability at 0.1 µM [1, 13]: 87.2%; viability at 1 µM [1, 14]: 85.8%; viability at 10 µM [1, 15]: 79.6%
Nc1nc(F)nc2c1ncn2[C@@H]1O[C@H](CO)[C@@H](O)[C@@H]1O [Fludarabine]	–	–	–	–	–	91.2 % DMSO	88.7 % DMSO	77.9 % DMSO	activation at 2 µM [2, 11]: 18.7%; activation at 10 µM [2, 12]: -12.6%
NCCc1ccc(O)c(O)c1 [Dopamine]	–	–	–	–	–	–	–	–	viability at 0.1 µM [1, 13]: 87%; viability at 1 µM [1, 14]: 74.7%; viability at 10 µM [1, 15]: 51.7%; activation at 0.4 µM [2, 16]: 3.4%; activation at 2 µM [2, 17]: -24.9%
CC(C)(C)NCC(O)c1cc(O)cc(O)c1 (stereo not shown) [Terbutaline]	–	–	–	–	–	91.9 % DMSO	95.2 % DMSO	89.9 % DMSO	activation at 2 µM [2, 11]: 8.9%; activation at 10 µM [2, 12]: 12.1%
CC(N/C(=N\C#N)Nc1ccncc1)C(C)(C)C (stereo not shown) [Pinacidil]	–	–	–	–	–	–	–	–	viability at 0.1 µM [1, 13]: 90.8%; viability at 1 µM [1, 14]: 98.8%; viability at 10 µM [1, 15]: 93.6%; activation at 2 µM [2, 17]: -0.57%; activation at 10 µM [2, 18]: 26.1%
CCC(C)n1ncn(-c2ccc(N3CCN(c4ccc(OCC5COC(Cn6cncn6)(c6ccc(Cl)cc6Cl)O5)cc4)CC3)cc2)c1=O (stereo not shown) [Itraconazole]	86.1%	29.2%	26.2%	–	–	–	–	–	activation at 0.08 µM ([2]; 0.08 uM test compound, relative to quetiapine, sheet "All OLga data", read-out: OL differentiation, 0.08 uM (% Quet)): 2.8%; activation at 0.4 µM [2, 19]: -174%
CCOC(=O)OC(C)OC1=C(C(=O)Nc2ccccn2)N(C)S(=O)(=O)c2ccccc21 (stereo not shown) [Ampiroxicam]	–	–	–	–	–	–	–	–	viability at 0.1 µM [1, 13]: 97.8%; viability at 1 µM [1, 14]: 82.6%; viability at 10 µM [1, 15]: 90.8%; activation at 2 µM [2, 17]: 12.7%; activation at 10 µM [2, 18]: -2%
CS(=O)(=O)OCCCCOS(C)(=O)=O [Busulfan]	–	–	–	–	–	93.9 % DMSO	91.8 % DMSO	79.1 % DMSO	activation at 2 µM [2, 17]: 2.3%; activation at 10 µM [2, 18]: -6.2%
COCC1=C(C(=O)OC(C)OC(=O)OC(C)C)N2C(=O)[C@@H](NC(=O)/C(=N\OC)c3csc(N)n3)[C@H]2SC1 (stereo partly shown) [Cefpodoxime proxetil]	96.9%	90.7%	98%	-7.7%	-20.6%	–	–	–	–
C=CC1=C(C(=O)O)N2C(=O)[C@@H](NC(=O)/C(=N\OCC(=O)O)c3csc(N)n3)[C@H]2SC1 [Cefixime]	–	–	–	–	–	–	–	–	viability at 0.1 µM [1, 13]: 82.1%; viability at 1 µM [1, 14]: 68.5%; viability at 10 µM [1, 15]: 67.3%; activation at 2 µM [2, 17]: 6.6%; activation at 10 µM [2, 18]: 63.5%
CN1CCN(CCCN2c3ccccc3Sc3ccc(Cl)cc32)CC1 [Prochlorperazine, reference compound]	122%	107%	12.6%	-12.5%	–	–	–	–	activation at 0.4 µM [2, 19]: 110%; hit in OL differentiation assay, MRF-TMC ([2]; ● = confirmed hit in this paper's assay): ●
CC(C)NCC(O)COc1cccc2ccccc12 (stereo not shown) [Propranolol]	–	–	–	–	–	95.6 % DMSO	79.5 % DMSO	32.7 % DMSO	activation at 0.4 µM ([2]; test compound at 0.4 uM, MBP expression relative to quetiapine, NCC library screen, sheet "All OLga data", read-out: 0.4 uM (% Quet)): 0.38%; activation at 2 µM [2, 11]: -14.5%
C=C[C@H]1C[N@@]2CC[C@H]1C[C@H]2[C@H](O)c1ccnc2ccc(OC)cc12 [Quinine]	–	–	–	–	–	93.4 % DMSO	87.0 % DMSO	–	activation at 2 µM [2, 11]: -22.9%; activation at 10 µM [2, 12]: -65.5%
CC(=O)NC[C@H]1CN(c2ccc(N3CCOCC3)c(F)c2)C(=O)O1 [linezolid]	–	–	–	4.3%	7.1%	–	–	–	viability at 0.1 µM [1, 13]: 95.7%; viability at 1 µM [1, 14]: 94.1%; viability at 10 µM [1, 15]: 94.7%
C[C@]12CCC(=O)C=C1CC[C@@H]1[C@@H]2[C@@H](O)C[C@@]2(C)[C@H]1CC[C@]2(O)C(=O)COC(=O)CCC(=O)O [Cortisol succinate]	–	–	–	–	–	–	–	–	0.1 µM (% DMSO) ([1]; alamarBlue viability, NCC library compound at 0.1 µM, sheet "All Tox data"): 123.4 % DMSO; 1 µM (% DMSO) ([1]; alamarBlue viability, NCC library compound at 1 µM, sheet "All Tox data"): 127.0 % DMSO; 10 µM (% DMSO) ([1]; alamarBlue viability, NCC library compound at 10 µM, sheet "All Tox data"): 132.7 % DMSO; 2 uM (% Quet) ([2]; test compound at 2 uM, NCC library screen, sheet "All OLga data", relative to quetiapine): 3.6 % Quet; 10 uM (% Quet) ([2]; test compound at 10 uM, NCC library screen, sheet "All OLga data", relative to quetiapine): 21.7 % Quet
Oc1ccc2c3c1O[C@H]1[C@@H](O)CC[C@@]4(O)[C@@H](C2)N(CC2CCC2)CC[C@]314 [Nalbufina]	–	–	–	–	–	–	–	–	viability at 0.1 µM ([1]; read-out: 0.1 µM (% DMSO)): 99%; viability at 1 µM ([1]; read-out: 1 µM (% DMSO)): 98.8%; viability at 10 µM ([1]; read-out: 10 µM (% DMSO)): 99.1%; activation at 2 µM ([2]; read-out: OL differentiation, 2 uM (% Quet)): -0.9%; activation at 10 µM ([2]; read-out: OL differentiation, 10 uM (% Quet)): 19.7%
CC(=O)OCC(=O)[C@@]12OC3(CCCC3)O[C@@H]1C[C@H]1[C@@H]3CCC4=CC(=O)C=C[C@]4(C)[C@@]3(F)[C@@H](O)C[C@@]12C [Amcinonide]	–	–	–	–	–	113.8 % DMSO	123.7 % DMSO	114.6 % DMSO	activation at 2 µM [2, 11]: 18.1%; activation at 10 µM [2, 12]: -10.2%
CN(C)C(=O)C(CCN1CCC(O)(c2ccc(Cl)cc2)CC1)(c1ccccc1)c1ccccc1 [Loperamide]	–	–	–	–	–	70.2 % DMSO	40.0 % DMSO	11.4 % DMSO	activation at 0.08 µM ([2]; test compound at 0.08 uM, NCC library screen, sheet "All OLga data", relative to quetiapine, read-out: 0.08 uM (% Quet)): -0.19%; activation at 0.4 µM [2, 16]: -17.5%
CC1(C)S[C@@H]2[C@H](/N=C/N3CCCCCC3)C(=O)N2[C@H]1C(=O)O [Amdinocillin]	89.7%	98.8%	102%	-15.6%	5.8%	–	–	–	–
Nc1nc2ncc(CNc3ccc(C(=O)N[C@@H](CCC(=O)O)C(=O)O)cc3)nc2c(=O)[nH]1 [Folic acid]	–	–	–	–	–	110.4 % DMSO	104.7 % DMSO	104.5 % DMSO	activation at 2 µM [2, 17]: -16.1%; activation at 10 µM [2, 18]: -12.9%
CCN1CCN(C(=O)N[C@@H](C(=O)N[C@@H]2C(=O)N3[C@@H]2SC(C)(C)[C@@H]3C(=O)O)c2ccccc2)C(=O)C1=O [Piperacillin]	–	–	–	–	–	89.0 % DMSO	88.3 % DMSO	88.0 % DMSO	activation at 2 µM [2, 17]: 2%; activation at 10 µM [2, 18]: -7.9%
